From ChEMBL document CHEMBL5316310, “Discovery of MK-8189, a Highly Potent and Selective PDE10A Inhibitor for the Treatment of Schizophrenia” (J Med Chem, 2023) come the findings set out here.

The test in a line: Selectivity ratio of Ki for N-terminal GST-tagged human recombinant PDE5A1 (1 to 875 residues) expressed in baculovirus-infected Sf9 cells to Ki for human PDE10A2 transfected in human AD293 cells cytosolic fraction.

On to `Cc1ccc([C@H]2C[C@@H]2COc2cc(NCc3nnc(C)s3)nc(C)n2)nc1` [MK-8189], for which the Ratio Ki was > 500000.
